Reference: paper PMC10820135, “Pharmacokinetic, Tissue Distribution, Metabolite, and Toxicity Evaluation of the Matrine Derivative, (6aS, 10S, 11aR, 11bR, 11cS)-10-Methylaminododecahydro-3a, 7a-Diaza-benzo (de) Anthracene-8-thione” (Molecules, 2024)

Legend:
[1] = Metabolite profiling of MASM in rats by UHPLC-QQQ-MS/MS; type: in vivo, Sprague-Dawley rats; conditions: rat
Experimental: The identification of the in vivo metabolites of MASM was conducted using UHPLC-QQQ-MS/MS combined with standard references and deuterium-labeled MASM. The findings are presented in Table 2, while the proposed primary metabolic pathway of MASM in rats is depicted in Figure 4. To provide a comprehensive understanding of the metabolite identification process, three representative metabolites of MASM are presented, with their identification relying on primary and secondary mass spectrometry data, standard references, and deuterium-labeled MASM. The remaining metabolites are detailed in Supplementary File S4. For instance, the identification of the metabolite, M1, as a demethylation product of MASM was accomplished through the utilization of MS, MS/MS data, and the standard reference. […] Moreover, the identification of M1 as the demethylation metabolite of MASM was accomplished using the standard reference synthesized in our laboratory. […] Secondly, the metabolite, M2, of MASM was identified as the dehydrogenation product of MASM through the utilization of MS and MS/MS data. […] Consequently, M2 was identified as a dehydrogenation metabolite of M1. Thirdly, through the utilization of MS, MS/MS data, and deuterium-labeled MASM, the metabolite, M8, of MASM was determined to be a dehydrogenation product of MASM. […] The major MS/MS fragment ions of M8 were found at m/z 111.92, 178.77, 150.16, and 135.85, which aligned with the characteristic cleavage pattern of matrine. Additionally, our lab synthesized deuterium-labeled MASM to further support our proposed structure. […] Consequently, M8 was identified as a dehydrogenation metabolite of MASM. The EIC, MS/MS spectrum of M8 and deuterium-labeled MASM are all depicted in Figure 5C.
UHPLC analysis was performed using a Thermo Accela AS system, employing an ACQUITY UPLC®BEH C18 (Waters Corporation, Wexfords, Ireland) (1.7 µm, 2.1 × 100 mm) column and a binary solvent system consisting of water containing 0.1% formic acid as mobile phase A and acetonitrile as mobile phase B. For pharmacokinetic evaluation, the gradient elution was set as follows: 97% A from 0 to 2 min, 97–70% A from 2 to 3 min, 70–20% A from 3 to 3.5 min, 20% A from 3.5 to 3.6 min, 20–97% A from 3.6 to 3.7 min, and 97% A from 3.7 to 5 min. For the metabolic test, the gradient elution in full scan mode was set as follows: 97% A from 0 to 2 min, 97–70% A from 2 to 4 min, 70–20% A from 4 to 6 min, 20% A from 6 to 7 min, 20–97% A from 7 to 8 min, and 97% A from 8 to 10 min. The flow rate was 0.2 mL/min, with a temperature of 40 °C maintained and an injection volume of 5 μL. The QQQ-MS/MS analysis was conducted using a Thermo TSQ QUANTUM ACCESS MAX system equipped with an electrospray ionization (ESI) source. The spray voltages were set at 4.0 kV and 2.5 kV for positive and negative ion modes, respectively; capillary and vaporizer temperatures were 320 °C and 350 °C, respectively; sheath and aux gas pressures were 35 and 10 psi, respectively.
Seventy Sprague-Dawley rats were fasted overnight before dosing, with free access to water. Subsequently, the rats were randomly and equally divided into 7 groups: the control groups received 3 different routes of administration: intravenous, intraperitoneal, and intragastric (NS, saline 1 mL/100 g); MASM intraperitoneal group (A, i.p. 80 mg/kg), MASM intragastrical group (B, i.g. 60 mg/kg), MASM intravenous group (C, i.v. 15 mg/kg), and DMASM intragastrical group (D, i.g. 60 mg/kg). It is important to note that the recommended clinical dose of matrine injection is 0.15 g, which is equivalent to a dosage of 15 mg/kg in rats. MASM was administered via tail vein injection at a dosage of 1 mL/100 g for intravenous dosing, while for intraperitoneal dosing, MASM was injected at the lower-right side of the abdomen of rats. […]

[2] = Stability of MASM in plasma QC samples; type: in vitro ADME; conditions: QC samples: autosampler 4℃ 8 h, -80℃ 30 days, three freeze-thaw cycles
Experimental: determined by calculating the RSD of 6 samples analyzed on the same day, while the inter-day precision was determined by calculating the RSD of 3 analytical batches analyzed over 3 consecutive days.
1.4 Extraction recovery and matrix effect
The extraction recovery was in assessed by comparing the peak area of the blank […]
i n E q . […]
Extraction recovery=Ap/Ax×100% Eq. (1)
Matrix effect=Ax/As×100% Eq. (2)
Ap: 10 μl of high (H), medium (M), and low (L) concentration of standard solution and 300 μl of IS were added to 90 μl of blank plasma, respectively, then pre-processed by sample pretreatment method and injected to obtain the peak area A p. […]
The stability of analytes in plasma was assessed by analyzing peak area in three different concentration QC samples. The long-term stability was evaluated by analyzing samples that had been stored at a temperature of -80℃ for a duration of 30 days. […]
freeze-thaw stability was assessed by analyzing samples that had undergone three freeze-thaw cycles, transitioning from a temperature of -80℃ to 25℃. Post-preparative stability was assessed by analyzing samples that had been stored in the autosampler at 4℃ for a duration of 8 h. […]
0.990 across the relevant concentration ranges (Supplementary Table S1). The lower limit of the quantitation (LLOQ) was determined to be 5.03 ng/ml. […]

In the case of `CNC1CC(=S)N2CC3CCCN4CCCC(C34)C2C1` [MASM, (6aS, 10S, 11aR, 11bR, 11cS)-10-methylaminododecahydro-3a, 7a-diaza-benzo (de) anthracene-8-thione], the “number of in vivo metabolites identified” value [1] is reported as 10, the “primary metabolic reactions (phase I)” value [1] is reported as “oxidation, reduction, and hydroxylation” and the stability in plasma [2] is reported as “stable”.
